Experimental data from US8053418B2, “Anti-penicillin resistant pneumococci agent and novel 16-membered macrolide derivative” (Microbial Chemistry Research Foundation, priority 2005, dated 2011).
≈ marks a conversion by molar mass, not a printed value.

Key:
Format in all cases: cell-based
[1] = system: Streptococcus pneumoniae IMC B-0919 (PRSP); assay: Antimicrobial activity test (MIC), clinical isolate IMC B-0919
Protocol: (§1) Using Streptococcus pneumoniae that include clinical isolates of PRSP, the antimicrobial activity of each of the prepared anti-PRSP agents was measured in accordance with the “determination method of minimum inhibitory concentration of drug against bacteria” of Japanese Society of Chemotherapy (for re-revised version, see Chemotherapy 29; 76, 1981).
(§2) 11 test strains of Streptococcus pneumoniae including IMC B-0919 are all clinical isolates, of which 2 strains, IMC B-0921 and IMC B-1229, are classified into penicillin susceptible Streptococcus pneumoniae (PSSP) and the remaining 9 strains are classified into penicillin-resistant Streptococcus pneumoniae (PRSP) (according to NCCLS standards).

[2] = system: Streptococcus pneumoniae IMC B-0920 (PRSP); assay: Antimicrobial activity test (MIC), clinical isolate IMC B-0920
Protocol: as §1, §2

[3] = system: Streptococcus pneumoniae IMC B-0922 (PRSP); assay: Antimicrobial activity test (MIC), clinical isolate IMC B-0922
Protocol: as §1, §2

[4] = system: Streptococcus pneumoniae IMC B-1231 (PRSP); assay: Antimicrobial activity test (MIC), clinical isolate IMC B-1231
Protocol: as §1, §2

[5] = system: Streptococcus pneumoniae IMC B-1232 (PRSP); assay: Antimicrobial activity test (MIC), clinical isolate IMC B-1232
Protocol: as §1, §2

[6] = system: Streptococcus pneumoniae IMC B-1233 (PRSP); assay: Antimicrobial activity test (MIC), clinical isolate IMC B-1233
Protocol: as §1, §2

[7] = system: Streptococcus pneumoniae IMC B-1234 (PRSP); assay: Antimicrobial activity test (MIC), clinical isolate IMC B-1234
Protocol: as §1, §2

[8] = system: Streptococcus pneumoniae IMC B-1235 (PRSP); assay: Antimicrobial activity test (MIC), clinical isolate IMC B-1235
Protocol: as §1, §2

[9] = system: Streptococcus pneumoniae IMC B-1236 (PRSP); assay: Antimicrobial activity test (MIC), clinical isolate IMC B-1236
Protocol: as §1, §2

[10] = system: Streptococcus pneumoniae IMC B-0921 (PSSP); assay: Antimicrobial activity test (MIC), clinical isolate IMC B-0921
Protocol: as §1, §2

[11] = system: Streptococcus pneumoniae IMC B-1229 (PSSP); assay: Antimicrobial activity test (MIC), clinical isolate IMC B-1229
Protocol: as §1, §2

[12] = PRSP clinical isolate IMC B-0919
[13] = Streptococcus pneumoniae IMC B-0919, PRSP
[14] = PRSP clinical isolate IMC B-0920
[15] = Streptococcus pneumoniae IMC B-0920, PRSP
[16] = PRSP clinical isolate IMC B-0922
[17] = Streptococcus pneumoniae IMC B-0922, PRSP
[18] = PRSP clinical isolate IMC B-1231
[19] = Streptococcus pneumoniae IMC B-1231, PRSP
[20] = PRSP clinical isolate IMC B-1232
[21] = Streptococcus pneumoniae IMC B-1232, PRSP
[22] = PRSP clinical isolate IMC B-1233
[23] = Streptococcus pneumoniae IMC B-1233, PRSP
[24] = PRSP clinical isolate IMC B-1234
[25] = Streptococcus pneumoniae IMC B-1234, PRSP
[26] = PRSP clinical isolate IMC B-1235
[27] = Streptococcus pneumoniae IMC B-1235, PRSP
[28] = PRSP clinical isolate IMC B-1236
[29] = Streptococcus pneumoniae IMC B-1236, PRSP
[30] = PSSP clinical isolate IMC B-0921
[31] = Streptococcus pneumoniae IMC B-0921, PSSP
[32] = PSSP clinical isolate IMC B-1229
[33] = Streptococcus pneumoniae IMC B-1229, PSSP

SMILES: CCC1OC(=O)CCC(C)C(OC2OC(C)CC(N(C)C)C2O)C(CC=O)CC(C)C(=O)C=CC(C)=CC1COC(=O)NCc1ccc(OC)cc1 (stereo not shown) [MKT-1011]
- MIC [1, 12]: 0.1 µg/mL (≈ 0.137 µM)
- MIC [1, 13]: 0.1 µg/mL (≈ 0.137 µM)
- MIC [2, 14]: 0.1 µg/mL (≈ 0.137 µM)
- MIC [2, 15]: 0.1 µg/mL (≈ 0.137 µM)
- MIC [3, 16]: 0.2 µg/mL (≈ 0.274 µM)
- MIC [3, 17]: 0.2 µg/mL (≈ 0.274 µM)
- MIC [4, 18]: 50 µg/mL (≈ 68.6 µM)
- MIC [4, 19]: 50 µg/mL (≈ 68.6 µM)
- MIC [5, 20]: 0.1 µg/mL (≈ 0.137 µM)
- MIC [5, 21]: 0.1 µg/mL (≈ 0.137 µM)
- MIC [6, 22]: 0.1 µg/mL (≈ 0.137 µM)
- MIC [6, 23]: 0.1 µg/mL (≈ 0.137 µM)
- MIC [7, 24]: 0.1 µg/mL (≈ 0.137 µM)
- MIC [7, 25]: 0.1 µg/mL (≈ 0.137 µM)
- MIC [8, 26]: 6.25 µg/mL (≈ 8.57 µM)
- MIC [8, 27]: 6.25 µg/mL (≈ 8.57 µM)
- MIC [9, 28]: 1.56 µg/mL (≈ 2.14 µM)
- MIC [9, 29]: 1.56 µg/mL (≈ 2.14 µM)
- MIC [10, 30]: 0.1 µg/mL (≈ 0.137 µM)
- MIC [10, 31]: 0.1 µg/mL (≈ 0.137 µM)
- MIC [11, 32]: 0.2 µg/mL (≈ 0.274 µM)
- MIC [11, 33]: 0.2 µg/mL (≈ 0.274 µM)

SMILES: CCC1OC(=O)CCC(C)C(OC2OC(C)CC(N(C)C)C2O)C(CC=O)CC(C)C(=O)C=CC(C)=CC1COC(=O)Cc1ccccc1 (stereo not shown) [MKT-2005]
- MIC [1, 12]: 0.2 µg/mL (≈ 0.292 µM)
- MIC [2, 14]: 0.2 µg/mL (≈ 0.292 µM)
- MIC [3, 16]: 0.1 µg/mL (≈ 0.146 µM)
- MIC [4, 18]: 0.78 µg/mL (≈ 1.14 µM)
- MIC [5, 20]: 0.05 µg/mL (≈ 0.0731 µM)
- MIC [6, 22]: <0.025 µg/mL
- MIC [7, 24]: 0.1 µg/mL (≈ 0.146 µM)
- MIC [8, 26]: 1.56 µg/mL (≈ 2.28 µM)
- MIC [9, 28]: 3.13 µg/mL (≈ 4.58 µM)
- MIC [10, 30]: 0.05 µg/mL (≈ 0.0731 µM)
- MIC [11, 32]: 0.1 µg/mL (≈ 0.146 µM)

SMILES: CC=CC=CC(=O)OCC1C=C(C)C=CC(=O)C(C)CC(CC=O)C(OC2OC(C)CC(N(C)C)C2O)C(C)CCC(=O)OC1CC (stereo not shown) [MKT-2110]
- MIC [1, 13]: 0.05 µg/mL (≈ 0.0758 µM)
- MIC [2, 15]: 0.20 µg/mL (≈ 0.303 µM)
- MIC [3, 17]: 0.10 µg/mL (≈ 0.152 µM)
- MIC [4, 19]: 25 µg/mL (≈ 37.9 µM)
- MIC [5, 21]: 0.20 µg/mL (≈ 0.303 µM)
- MIC [6, 23]: 0.10 µg/mL (≈ 0.152 µM)
- MIC [7, 25]: 0.10 µg/mL (≈ 0.152 µM)
- MIC [8, 27]: 50 µg/mL (≈ 75.8 µM)
- MIC [9, 29]: 12.5 µg/mL (≈ 18.9 µM)
- MIC [10, 31]: 0.10 µg/mL (≈ 0.152 µM)
- MIC [11, 33]: 0.20 µg/mL (≈ 0.303 µM)

SMILES: CCC1OC(=O)CCC(C)C(OC2OC(C)CC(N(C)C)C2O)C(CC=O)CC(C)C(=O)C=CC(C)=CC1CI (stereo not shown) [MKT-3001]
- MIC [1, 12]: 0.39 µg/mL (≈ 0.577 µM)
- MIC [2, 14]: 0.2 µg/mL (≈ 0.296 µM)
- MIC [3, 16]: 0.2 µg/mL (≈ 0.296 µM)
- MIC [4, 18]: >50 µg/mL
- MIC [5, 20]: 0.1 µg/mL (≈ 0.148 µM)
- MIC [6, 22]: 0.2 µg/mL (≈ 0.296 µM)
- MIC [7, 24]: 0.2 µg/mL (≈ 0.296 µM)
- MIC [8, 26]: 50 µg/mL (≈ 74 µM)
- MIC [9, 28]: 25 µg/mL (≈ 37 µM)
- MIC [10, 30]: 0.2 µg/mL (≈ 0.296 µM)
- MIC [11, 32]: 0.39 µg/mL (≈ 0.577 µM)

SMILES: CCC1OC(=O)CCC(C)C(OC2OC(C)CC(N(C)C)C2O)C(CC=O)CC(C)C(=O)C=CC(C)=CC1CN=[N+]=[N-] (stereo not shown) [MKT-3004]
- MIC [1, 12]: 0.2 µg/mL (≈ 0.339 µM)
- MIC [2, 14]: 0.1 µg/mL (≈ 0.169 µM)
- MIC [3, 16]: 0.1 µg/mL (≈ 0.169 µM)
- MIC [4, 18]: 25 µg/mL (≈ 42.3 µM)
- MIC [5, 20]: 0.2 µg/mL (≈ 0.339 µM)
- MIC [6, 22]: 0.2 µg/mL (≈ 0.339 µM)
- MIC [7, 24]: 0.2 µg/mL (≈ 0.339 µM)
- MIC [8, 26]: 50 µg/mL (≈ 84.6 µM)
- MIC [9, 28]: 50 µg/mL (≈ 84.6 µM)
- MIC [10, 30]: 0.1 µg/mL (≈ 0.169 µM)
- MIC [11, 32]: 0.1 µg/mL (≈ 0.169 µM)

SMILES: CCC1OC(=O)CCC(C)C(OC2OC(C)CC(N(C)C)C2O)C(CC=O)CC(C)C(=O)C=CC(C)=CC1CN (stereo not shown) [MKT-3005]
- MIC [1, 12]: 0.78 µg/mL (≈ 1.38 µM)
- MIC [2, 14]: 1.56 µg/mL (≈ 2.76 µM)
- MIC [3, 16]: 0.39 µg/mL (≈ 0.691 µM)
- MIC [4, 18]: 50 µg/mL (≈ 88.5 µM)
- MIC [5, 20]: 0.2 µg/mL (≈ 0.354 µM)
- MIC [6, 22]: 0.05 µg/mL (≈ 0.0885 µM)
- MIC [7, 24]: 0.2 µg/mL (≈ 0.354 µM)
- MIC [8, 26]: 100 µg/mL (≈ 177 µM)
- MIC [9, 28]: 100 µg/mL (≈ 177 µM)
- MIC [10, 30]: 0.1 µg/mL (≈ 0.177 µM)
- MIC [11, 32]: 0.2 µg/mL (≈ 0.354 µM)

SMILES: CCC1OC(=O)CCC(C)C(OC2OC(C)CC(N(C)C)C2O)C(CC=O)CC(C)C(=O)C=CC(C)=CC1CCl (stereo not shown) [MKT-3007]
- MIC [1, 13]: 0.20 µg/mL (≈ 0.342 µM)
- MIC [2, 15]: 0.20 µg/mL (≈ 0.342 µM)
- MIC [3, 17]: 0.20 µg/mL (≈ 0.342 µM)
- MIC [4, 19]: 25 µg/mL (≈ 42.8 µM)
- MIC [5, 21]: 0.20 µg/mL (≈ 0.342 µM)
- MIC [6, 23]: 0.20 µg/mL (≈ 0.342 µM)
- MIC [7, 25]: 0.20 µg/mL (≈ 0.342 µM)
- MIC [8, 27]: 50 µg/mL (≈ 85.6 µM)
- MIC [9, 29]: 50 µg/mL (≈ 85.6 µM)
- MIC [10, 31]: 0.10 µg/mL (≈ 0.171 µM)
- MIC [11, 33]: 0.20 µg/mL (≈ 0.342 µM)
